Data from ChEMBL document CHEMBL1201862, “PubChem BioAssay data set” (2004).
The source made the active and inactive calls.

Experiments:
[1] = toxicity toward HepG2 liver cells – cell-based, plate reader, cherry-pick, antagonist series, cytotoxicity control, dose response (AID 743416); type: functional
[2] = viability loss in HEK293 cells – cell-based, plate reader, cherry-picked samples, cytotoxicity control, dose response (AID 743446); type: functional
[3] = NIH3T3 cell viability loss – ATP luminescence, mouse fibroblasts, counter-screen, dose response (AID 2010); type: functional, cell-based;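 further: cells exposed to compound for about 90 hours before reading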
[4] = Trypanosoma cruzi growth suppression in host cells – NIH3T3 host cells, beta-gal luminescence, confirmation (AID 2044); type: functional, cell-based;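 further: intracellular parasites grown in NIH/3T3 mouse fibroblasts as host cells; luminescent beta-galactosidase reporter signal from transgenic T. cruzi replicating inside host cells; inhibitors lower the luminescence signal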
[5] = A549 cell cytotoxicity, dose response, cytotoxicity control, plate reader, cherry-pick, antagonist series (AID 743412); type: functional, cell-based
[6] = target: T1, Microphthalmia-associated transcription factor (Homo sapiens, UniProt O75030); experiment: reducers of TRPM1 reporter luminescence, concentration series – cell-based, SK-MEL-5, cherry-picked, set 3, MITF inhibitor project, dose response (AID 493073); type: functional;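 further: SK-MEL-5 melanoma cells with luciferase driven by the MITF target TRPM1 promoter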
T1 sequence (O75030 whole entry): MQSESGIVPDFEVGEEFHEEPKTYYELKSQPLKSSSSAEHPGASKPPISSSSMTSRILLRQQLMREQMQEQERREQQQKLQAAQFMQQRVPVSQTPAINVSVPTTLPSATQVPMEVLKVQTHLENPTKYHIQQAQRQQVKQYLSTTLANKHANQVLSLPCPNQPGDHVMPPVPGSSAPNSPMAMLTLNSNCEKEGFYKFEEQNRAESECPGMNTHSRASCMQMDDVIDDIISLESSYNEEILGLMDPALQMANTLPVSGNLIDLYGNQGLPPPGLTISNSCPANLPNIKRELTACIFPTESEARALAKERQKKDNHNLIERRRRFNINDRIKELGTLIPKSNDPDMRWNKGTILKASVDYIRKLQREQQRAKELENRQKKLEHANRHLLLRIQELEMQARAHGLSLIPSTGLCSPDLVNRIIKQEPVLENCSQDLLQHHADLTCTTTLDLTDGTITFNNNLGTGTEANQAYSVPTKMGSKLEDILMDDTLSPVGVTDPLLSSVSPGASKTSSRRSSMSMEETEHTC

[7] = blockade of melanocortin 4 receptor signaling – cell-based, plate reader, cherry pick, counter-screen for LGR2 antagonist project, dose response (AID 743444); type: functional;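 further: transfected HEK 293 cells stimulated with alpha-MSH peptide; potency of inhibitors of the alpha-MSH evoked signal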
[8] = blockers of bursicon-stimulated LGR2 cAMP reporter – cell-based, HEK293, CRE-luciferase reporter, cherry pick, set 2, dose response (AID 743343); type: functional;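 further: transfected cells were stimulated with diluted bursicon conditioned medium after compound addition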
[9] = target: T2, Heat shock factor protein 1 (Mus musculus, UniProt P38532); experiment: enhancement of HSF1-driven luciferase signal – cell-based, NIH3T3, luminescence, dose retest, confirmation (AID 435004); type: functional;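 further: stress induced by proteasome inhibitor MG132 added 30 min after compound; luciferase reporter driven by HSF1 response element in NIH3T3 cells; actives raise luminescence as potentiators of the MG132 stress response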
T2 sequence (P38532 whole entry): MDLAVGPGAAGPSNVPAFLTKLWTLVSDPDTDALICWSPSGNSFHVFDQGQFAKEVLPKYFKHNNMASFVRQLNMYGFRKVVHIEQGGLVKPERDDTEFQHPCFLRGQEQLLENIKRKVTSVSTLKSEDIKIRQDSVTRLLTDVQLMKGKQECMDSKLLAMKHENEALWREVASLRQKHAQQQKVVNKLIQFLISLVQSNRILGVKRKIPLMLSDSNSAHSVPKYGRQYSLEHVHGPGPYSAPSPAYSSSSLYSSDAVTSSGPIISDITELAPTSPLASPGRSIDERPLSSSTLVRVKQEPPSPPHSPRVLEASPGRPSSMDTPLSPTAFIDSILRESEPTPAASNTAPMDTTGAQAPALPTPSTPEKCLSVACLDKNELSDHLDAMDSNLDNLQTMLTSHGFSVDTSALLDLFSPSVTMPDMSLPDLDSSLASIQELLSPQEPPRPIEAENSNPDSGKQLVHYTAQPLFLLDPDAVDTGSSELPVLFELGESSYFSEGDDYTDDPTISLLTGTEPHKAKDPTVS

Leucine aminopeptidase = target: T3, Leucine aminopeptidase (Plasmodium falciparum 3D7, UniProt Q8IL11); experiment: P. falciparum M17LAP inhibitors, primary screen, biochemical, fluorogenic H-Leu-NHMec substrate, 1536-well (AID 1619); type: functional
T3 sequence (Q8IL11 whole entry): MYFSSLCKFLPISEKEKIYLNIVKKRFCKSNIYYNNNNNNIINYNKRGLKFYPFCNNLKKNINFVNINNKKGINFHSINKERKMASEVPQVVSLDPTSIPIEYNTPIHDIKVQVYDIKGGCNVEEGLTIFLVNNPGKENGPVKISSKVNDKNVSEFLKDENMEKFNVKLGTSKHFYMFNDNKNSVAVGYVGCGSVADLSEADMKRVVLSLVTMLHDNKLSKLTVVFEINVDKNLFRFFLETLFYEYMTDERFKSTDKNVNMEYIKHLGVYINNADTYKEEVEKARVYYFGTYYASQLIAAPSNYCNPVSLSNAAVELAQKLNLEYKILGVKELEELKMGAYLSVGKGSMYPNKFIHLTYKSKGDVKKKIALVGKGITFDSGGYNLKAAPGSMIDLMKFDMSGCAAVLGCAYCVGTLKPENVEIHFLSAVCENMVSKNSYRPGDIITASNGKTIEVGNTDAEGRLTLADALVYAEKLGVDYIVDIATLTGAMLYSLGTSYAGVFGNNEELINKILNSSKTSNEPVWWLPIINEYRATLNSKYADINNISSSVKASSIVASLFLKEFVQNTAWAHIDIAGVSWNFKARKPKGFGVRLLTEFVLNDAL

[10] = M. tuberculosis H37Rv growth inhibitors, H37Rv strain (AID 1626); type: functional
[11] = luciferase reporter signal suppression in cells – H4 neuroglioma cells, luminescence, dose response (AID 1990); type: functional, cell-based
[12] = target: Photoreceptor-specific nuclear receptor (Homo sapiens, UniProt Q9Y5X4); type: functional, cell-based;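 further: CHO-S cells with Gal4-NCOR and VP16-NR2E3 two-hybrid luciferase reporter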
[13] = target: T2, Heat shock factor protein 1; experiment: decrease of HSF1-responsive luciferase luminescence – cell-based, NIH3T3, dose retest, confirmation (AID 2382); type: functional;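 further: NIH3T3 fibroblasts with HSF1-driven luciferase reporter stressed by proteasome inhibitor MG132; luminescence from HSF1-driven luciferase expression after 8 hours of MG132 stress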
[14] = target: NAD-dependent protein deacylase sirtuin-5, mitochondrial (Homo sapiens, UniProt Q9NXA8); experiment: sirtuin-5 deacylation blockers, concentration series – biochemical, fluorescence imaging, cherry-pick, set 5, dose response (AID 720591);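 further: desuccinylation of succinyl peptide AMC substrate read as fluorescence after trypsin release; potency of inhibitors that lower fluorescence and may act on trypsin instead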
[15] = target: T4, Replicative DNA helicase DnaB (Mycobacterium tuberculosis, UniProt P9WMR3); experiment: DnaB intein splicing inhibitors, dose response, biochemical, cell-free fluorescence (AID 449749); type: functional
T4 sequence (P9WMR3 whole entry): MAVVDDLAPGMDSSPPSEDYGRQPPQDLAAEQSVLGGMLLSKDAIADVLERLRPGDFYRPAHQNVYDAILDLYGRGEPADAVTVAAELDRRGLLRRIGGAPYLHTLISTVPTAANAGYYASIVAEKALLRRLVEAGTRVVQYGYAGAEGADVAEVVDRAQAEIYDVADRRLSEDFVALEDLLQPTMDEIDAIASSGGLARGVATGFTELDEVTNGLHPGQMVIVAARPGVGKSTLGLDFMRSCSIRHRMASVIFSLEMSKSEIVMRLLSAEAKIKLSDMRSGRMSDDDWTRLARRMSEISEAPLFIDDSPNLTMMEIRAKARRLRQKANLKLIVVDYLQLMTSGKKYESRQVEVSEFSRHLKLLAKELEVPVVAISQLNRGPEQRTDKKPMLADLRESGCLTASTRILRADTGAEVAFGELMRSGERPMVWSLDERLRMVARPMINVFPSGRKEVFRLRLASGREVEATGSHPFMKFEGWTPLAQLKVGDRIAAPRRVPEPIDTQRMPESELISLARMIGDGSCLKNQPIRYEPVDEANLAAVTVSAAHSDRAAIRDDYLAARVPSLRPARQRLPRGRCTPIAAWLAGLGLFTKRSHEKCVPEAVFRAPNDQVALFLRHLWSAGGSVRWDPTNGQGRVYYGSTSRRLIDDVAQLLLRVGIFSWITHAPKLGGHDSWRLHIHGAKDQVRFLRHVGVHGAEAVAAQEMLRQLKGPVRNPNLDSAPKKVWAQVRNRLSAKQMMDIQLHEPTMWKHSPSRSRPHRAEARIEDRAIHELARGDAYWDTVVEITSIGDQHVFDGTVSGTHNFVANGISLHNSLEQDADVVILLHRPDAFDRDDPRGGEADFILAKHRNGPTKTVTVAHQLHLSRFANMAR

Protein RecA = target: T5, Protein RecA (Mycobacterium tuberculosis, UniProt P9WHJ3); experiment: Fluorescence Cell-Free Homogeneous Dose Retest to Identify Inhibitors of RecA-Intein Splicing Activity. [Related pubchem assays (depositor defined):AID2097, AID2223, AID489010, AID492950]; type: functional
T5 sequence (P9WHJ3 whole entry): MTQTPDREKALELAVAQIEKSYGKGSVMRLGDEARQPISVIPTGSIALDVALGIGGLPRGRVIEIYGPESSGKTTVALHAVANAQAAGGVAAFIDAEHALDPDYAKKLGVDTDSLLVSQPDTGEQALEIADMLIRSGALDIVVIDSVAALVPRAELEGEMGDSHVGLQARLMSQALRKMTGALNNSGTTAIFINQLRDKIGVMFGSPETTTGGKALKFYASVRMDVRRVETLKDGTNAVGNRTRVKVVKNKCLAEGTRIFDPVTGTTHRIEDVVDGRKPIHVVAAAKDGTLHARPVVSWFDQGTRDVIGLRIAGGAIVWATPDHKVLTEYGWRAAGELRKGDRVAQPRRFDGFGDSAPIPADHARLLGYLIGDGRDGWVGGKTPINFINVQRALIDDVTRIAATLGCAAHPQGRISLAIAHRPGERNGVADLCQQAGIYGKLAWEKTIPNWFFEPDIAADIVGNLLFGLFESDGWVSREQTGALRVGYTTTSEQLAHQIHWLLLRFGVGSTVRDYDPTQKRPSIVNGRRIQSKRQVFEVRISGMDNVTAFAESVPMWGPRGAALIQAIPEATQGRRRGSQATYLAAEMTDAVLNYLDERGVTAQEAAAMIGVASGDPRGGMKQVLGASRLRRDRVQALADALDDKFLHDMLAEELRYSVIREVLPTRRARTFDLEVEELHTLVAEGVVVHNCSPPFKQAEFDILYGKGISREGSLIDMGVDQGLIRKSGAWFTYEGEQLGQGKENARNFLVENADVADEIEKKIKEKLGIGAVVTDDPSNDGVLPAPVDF

[16] = potency of ADAM10 substrate cleavage blockers – biochemical, QFRET, dose response (AID 743254);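 further: ADAM10 enzyme with the DM2 quenched FRET peptide as substrate; EDANS fluorescence gain as the protease cuts the substrate; inhibitor potency against ADAM10 proteolytic activity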
[17] = Luminescence Cell-Based Dose Retest to Confirm Inhibitors of Cancer Stem Cells. [Related pubchem assays (depositor defined):AID2717, AID2721]; type: functional; conditions: Homo sapiens
[18] = target: Disintegrin and metalloproteinase domain-containing protein 17 (Homo sapiens, UniProt P78536); experiment: inhibition of ADAM17 substrate cleavage – biochemical, quenched FRET substrate, counter-screen for ADAM10 exosite inhibitor project, dose response (AID 743253)
Sequence of Disintegrin and metalloproteinase domain-containing protein 17 (P78536 whole entry, the tested form may be a part): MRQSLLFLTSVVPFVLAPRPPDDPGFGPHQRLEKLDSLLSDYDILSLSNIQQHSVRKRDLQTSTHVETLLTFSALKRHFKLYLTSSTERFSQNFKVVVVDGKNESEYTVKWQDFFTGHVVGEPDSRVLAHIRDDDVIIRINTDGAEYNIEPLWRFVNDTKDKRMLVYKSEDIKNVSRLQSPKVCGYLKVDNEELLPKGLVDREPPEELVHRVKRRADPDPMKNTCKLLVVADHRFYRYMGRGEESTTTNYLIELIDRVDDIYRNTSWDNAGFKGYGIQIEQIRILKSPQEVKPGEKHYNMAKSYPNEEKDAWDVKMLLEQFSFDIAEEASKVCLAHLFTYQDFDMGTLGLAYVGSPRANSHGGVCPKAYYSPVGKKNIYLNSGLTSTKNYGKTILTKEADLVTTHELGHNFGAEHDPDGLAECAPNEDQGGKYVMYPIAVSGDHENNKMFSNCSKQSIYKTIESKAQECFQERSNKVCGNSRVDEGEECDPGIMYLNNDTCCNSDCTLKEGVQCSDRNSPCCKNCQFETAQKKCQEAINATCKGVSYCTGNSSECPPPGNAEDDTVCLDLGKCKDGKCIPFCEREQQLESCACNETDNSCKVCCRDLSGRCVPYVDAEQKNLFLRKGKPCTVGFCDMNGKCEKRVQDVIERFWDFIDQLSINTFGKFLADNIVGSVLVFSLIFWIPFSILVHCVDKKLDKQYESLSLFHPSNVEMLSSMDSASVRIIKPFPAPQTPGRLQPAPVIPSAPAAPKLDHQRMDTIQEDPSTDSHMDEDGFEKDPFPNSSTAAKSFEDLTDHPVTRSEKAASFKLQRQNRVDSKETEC

Sequence of Photoreceptor-specific nuclear receptor (Q9Y5X4 whole entry, the tested form may be a part): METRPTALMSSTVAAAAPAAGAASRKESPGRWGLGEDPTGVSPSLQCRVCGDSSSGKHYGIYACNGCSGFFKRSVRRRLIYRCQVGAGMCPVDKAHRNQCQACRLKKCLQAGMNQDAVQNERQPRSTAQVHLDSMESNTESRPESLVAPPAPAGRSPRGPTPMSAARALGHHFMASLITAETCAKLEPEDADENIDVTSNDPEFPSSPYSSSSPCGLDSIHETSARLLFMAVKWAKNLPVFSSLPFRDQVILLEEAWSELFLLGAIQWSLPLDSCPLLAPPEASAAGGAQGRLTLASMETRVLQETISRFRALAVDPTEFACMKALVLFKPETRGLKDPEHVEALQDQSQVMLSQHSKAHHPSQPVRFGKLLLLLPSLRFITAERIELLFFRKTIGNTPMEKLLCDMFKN
Sequence of NAD-dependent protein deacylase sirtuin-5, mitochondrial (Q9NXA8 whole entry): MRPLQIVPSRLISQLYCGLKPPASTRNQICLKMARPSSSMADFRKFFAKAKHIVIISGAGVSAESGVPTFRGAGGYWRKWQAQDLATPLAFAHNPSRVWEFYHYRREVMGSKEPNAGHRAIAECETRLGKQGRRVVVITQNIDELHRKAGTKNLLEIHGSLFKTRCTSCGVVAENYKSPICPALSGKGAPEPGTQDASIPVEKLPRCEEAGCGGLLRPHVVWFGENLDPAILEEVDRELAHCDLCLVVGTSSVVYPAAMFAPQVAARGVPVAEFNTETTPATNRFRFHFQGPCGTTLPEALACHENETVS

O=C(c1ccc(CSc2nc3cc[nH]cc-3n2)cc1)N1CCN(c2cccc(Cl)c2)CC1
AC50 [1]: 32.6 µM (active) | AC50 [2]: 50.4 µM (active) | EC50 [3]: > 60 µM (not active) | EC50 [4]: 1.39 µM (active) | AC50 [5]: 38 µM (active)

O=S(=O)(CC(CN1CCCCC1)N1CCCCC1)c1ccc2ccccc2c1 (configuration not stated)
AC50 [6]: 12.5 µM (active) | AC50 [1]: 14.6 µM (active) | AC50 [2]: 18.8 µM (active) | AC50 [7]: 14 µM (active) | EC50 [3]: > 60 µM (not active) | AC50 [8]: 22.3 µM (active) | EC50 [9]: 13.9 µM (active) | EC50 [4]: 2.65 µM (active) | AC50 [5]: 11.6 µM (active)

CCOC(=O)c1ccc(NC(=O)C2C3CCC(C3)C2C(=O)O)cc1 (configuration not stated)
IC50 (Leucine aminopeptidase): 20 µM (active) | IC50 [10]: > 100 µM (active)

CCc1ccc(NC(=O)CSc2nnc(-c3ccccn3)n2C)cc1
IC50 [10]: > 100 µM (active)

Cc1cc(C(=O)CSc2nnc3ccccn23)c(C)n1-c1ccccc1
AC50 [6]: 2.08 µM (active) | AC50 [7]: 1.39 µM (active) | EC50 [11]: 0.844 µM (active) | AC50 [8]: 1.06 µM (active) | IC50 [12]: 14.4 µM (inactive) | EC50 [13]: < 0.16 µM (active) | AC50 [5]: > 52 µM (inactive)

CC(=O)N1c2ccc(S(=O)(=O)NCCC(=O)NC3CCC(C)CC3)cc2CC1C (configuration not stated)
AC50 [14]: > 30 µM (inactive)

N#CC1=C(N)Oc2[nH]nc(-c3ccc(F)cc3)c2C1c1ccncc1 (configuration not stated)
IC50 (Leucine aminopeptidase): 94.3 µM (active) | AC50 [15]: 7.34 µM (active) | EC50 (Protein RecA): 5.79 µM (active)

Cc1ccccc1/N=C1\SC(CC(=O)Nc2ccc3ccccc3c2)C(=O)N1Cc1ccccn1 (configuration not stated)
IC50 [16]: 12.5 µM (inactive) | AC50 [17]: 4.16 µM (active) | EC50 [9]: > 120 µM (inactive) | IC50 [18]: > 69.5 µM (inactive)
